Experimental data from patent US20070098636A1, “Method of identifying responders to treatment with insulin sensitizers” (priority 2003, published 2007).

Key:
db/db mice = assay: Adiponectin complex distribution in serum of treated db/db mice (velocity sedimentation, quantitative Western blot); type: in vivo, mouse; conditions: male db/db mice, 10 mg/kg-day by gavage, following 11 days of treatment
Protocol: (§1) Velocity sedimentation/gel filtration chromatography for separation of adiponectin complexes—5-20% sucrose gradients in 10 mM HEPES pH 8, 125 mM NaCl were poured stepwise (5%, 10%, 15%, 20%) in 2-ml thin-walled ultracentrifuge tubes (Becton Dickinson) and allowed to equilibrate overnight at 4° C. Following layering of the sample on top (diluted 1:10 with 10 mM HEPES pH 8, 125 mM NaCl in the case of serum), the gradients were spun at 55,000 RPM for four hours at 4° C. in a TLS55 rotor in a Beckman TL-100 tabletop ultracentrifuge. 150 μL gradient fractions were sequentially retrieved from the top of the gradient and analyzed by quantitative Western blot analysis.
(§2) Immunoblotting—Separation of proteins by SDS-PAGE, fluorography, and immunoblotting were performed as described previously (20). Primary and secondary antibodies were diluted in TBS with 0.05% Tween-20 and 1% BSA. Horseradish peroxidase conjugated secondary antibodies were detected with enhanced chemiluminescence according to the manufacturer's instructions (Pierce). For quantitative Western blotting, proteins were transferred to BA83 nitrocellulose (Schleicher & Schuell) after SDS-PAGE. […] Blots were analyzed with a Phosphoimager (Molecular Dynamics) and fractions 4-6 and 9-11 from velocity sedimentation (LMW and […] adiponectin, respectively) were quantitated with Imagequant Software. […]

non-diabetic human males = assay: Human Clinical Study A: plasma adiponectin and adiponectin complexes pre- and post-treatment; type: in vivo; conditions: 4 mg bid for 14 days
Protocol: as §1, §2

**Q.** Which results are given for `CN(CCOc1ccc(CC2SC(=O)NC2=O)cc1)c1ccccn1` (stereo not drawn) [rosiglitazone]?
**A.** percentage of adiponectin found in the high molecular weight (HMW) form (db/db mice): approximately 45 % of total circulating adiponectin; total adiponectin relative to placebo (non-diabetic human males): about 2 fold; HMW/total adiponectin ratio, post-treatment value (non-diabetic human males; pre-treatment value 20-25%): 45-50%
